Reference: patent publication US11311570B2, “Method of inducing satiety” (PERORA GMBH, priority 2014, dated 2022)

Assays:
[1] = published rat feeding study, independent from intake; cited from earlier work
[2] = Tryptophan release / dissolution in simulated gastric and intestinal fluid; type: physicochemical; details: 30 mg powder in 22 mL FaSSGF, 37° C.
Method: A sample of 200 mg of tryptophan-containing granules was suspended in 22 mL fasted-state simulated gastric fluid (FaSSGF) at 37° C. and agitated (shaker ST5 from CAT, Germany). FaSSGF was prepared by dissolving 1 g of NaCl (Sigma-Aldrich) in 450 mL of water, adding 30 mg of SIF powder (biorelvant.com), adjusting the pH to 2.0 with 0.1 N HCl (Sigma-Aldrich) and adding water to a final volume of 500 mL.
A sample of 200 mg of tryptophan-containing granules was suspended in 22 mL fasted-state simulated intestinal fluid (FaSSIF) at 37° C. and agitated (shaker ST5 from CAT, Germany).
30 mg of tryptophan powder were suspended in 22 mL FaSSGF at 37° C. and agitated (shaker ST5 from CAT, Germany). Aliquots were removed at time intervals of 5 min, and tryptophan concentration was quantified using absorption measurement at a wavelength of 280 nm in a NanoDrop® 2000 device (Thermo Scientific, USA).

| Compound | true digestibility of stearic acid from tristearin [1] [g/g] | time after which quantitatively dissolved [2] [min] |
| --- | --- | --- |
| CCCCCCCCCCCCCCCCCC(=O)OCC(COC(=O)CCCCCCCCCCCCCCCCC)OC(=O)CCCCCCCCCCCCCCCCC [tristearin] | 0.15 |  |
| N[C@@H](Cc1c[nH]c2ccccc12)C(=O)O [tryptophan powder, L-Tryptophan] |  | 10 |
